Tests used:
zebrafish Alr [1] = biological target: T1, zebrafish Alr (Danio rerio, UniProt A4QNU9); assay: Ellman's reagent (free thiol) time course; format: biochemical; conditions: room temperature
T1 construct: gene gfer; full-length ORF (191 residues) in pET28b, N-terminal His-tag, expressed in E. coli BL21-DE3, Ni-NTA purified under native condition; about 23 kDa monomer, disulfide-linked dimer

zebrafish Alr [2] = biological target: T1, zebrafish Alr; assay: UV-visible absorption spectrum of purified protein; format: binding; conditions: 15 uM protein, free FAD as reference; FAD co-purified from E. coli
zebrafish Alr [3] = biological target: T2, zebrafish Alr (Danio rerio, UniProt A4QNU9, C131S); assay: UV-visible absorption spectrum of purified protein; format: binding; conditions: 15 uM protein, free FAD as reference; FAD co-purified from E. coli
T2 construct: gene gfer; full-length ORF (191 residues) in pET28b, N-terminal His-tag, expressed in E. coli BL21-DE3, Ni-NTA purified under native condition; about 23 kDa monomer, disulfide-linked dimer
T2 sequence (A4QNU9 1-191 C131S): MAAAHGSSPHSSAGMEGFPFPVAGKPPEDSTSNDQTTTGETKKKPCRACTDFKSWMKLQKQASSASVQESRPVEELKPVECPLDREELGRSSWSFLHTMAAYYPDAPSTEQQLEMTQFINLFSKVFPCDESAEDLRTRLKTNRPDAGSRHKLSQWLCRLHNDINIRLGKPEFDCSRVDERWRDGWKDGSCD

T1 sequence (A4QNU9 1-191): as the sequence (A4QNU9 1-191 C131S) above, with S131C counted along it

SMILES	Ellman's reagent (free thiol) time course (zebrafish Alr [1])	UV-visible absorption spectrum of purified protein (zebrafish Alr [2])	UV-visible absorption spectrum of purified protein (zebrafish Alr [3])
OC(CS)C(O)CS (stereo not drawn) [DTT]	Zebrafish Alr oxidized DTT efficiently, while Alr^C131S completely lost this activity	–	–
Cc1cc2nc3c(=O)[nH]c(=O)nc-3n(C[C@H](O)[C@H](O)[C@H](O)COP(=O)(O)OP(=O)(O)OC[C@H]3O[C@@H](n4cnc5c(N)ncnc54)[C@H](O)[C@@H]3O)c2cc1C [FAD]	–	Zebrafish Alr also binds FAD as determined by spectroscopic absorption	wild type Alr protein and mutant Alr^C131S protein are characteristic of the FAD moiety

Reference: publication PMC3266923, “Augmenter of Liver Regeneration (alr) Promotes Liver Outgrowth during Zebrafish Hepatogenesis” (PLoS ONE, 2012)
